SMILES strings stand for the structures.

A word on the melting point: it is the temperature of the solid-liquid transition. For orientation: IC50 means the concentration that gives 50% inhibition.

T1 sequence (P00533 25-1210): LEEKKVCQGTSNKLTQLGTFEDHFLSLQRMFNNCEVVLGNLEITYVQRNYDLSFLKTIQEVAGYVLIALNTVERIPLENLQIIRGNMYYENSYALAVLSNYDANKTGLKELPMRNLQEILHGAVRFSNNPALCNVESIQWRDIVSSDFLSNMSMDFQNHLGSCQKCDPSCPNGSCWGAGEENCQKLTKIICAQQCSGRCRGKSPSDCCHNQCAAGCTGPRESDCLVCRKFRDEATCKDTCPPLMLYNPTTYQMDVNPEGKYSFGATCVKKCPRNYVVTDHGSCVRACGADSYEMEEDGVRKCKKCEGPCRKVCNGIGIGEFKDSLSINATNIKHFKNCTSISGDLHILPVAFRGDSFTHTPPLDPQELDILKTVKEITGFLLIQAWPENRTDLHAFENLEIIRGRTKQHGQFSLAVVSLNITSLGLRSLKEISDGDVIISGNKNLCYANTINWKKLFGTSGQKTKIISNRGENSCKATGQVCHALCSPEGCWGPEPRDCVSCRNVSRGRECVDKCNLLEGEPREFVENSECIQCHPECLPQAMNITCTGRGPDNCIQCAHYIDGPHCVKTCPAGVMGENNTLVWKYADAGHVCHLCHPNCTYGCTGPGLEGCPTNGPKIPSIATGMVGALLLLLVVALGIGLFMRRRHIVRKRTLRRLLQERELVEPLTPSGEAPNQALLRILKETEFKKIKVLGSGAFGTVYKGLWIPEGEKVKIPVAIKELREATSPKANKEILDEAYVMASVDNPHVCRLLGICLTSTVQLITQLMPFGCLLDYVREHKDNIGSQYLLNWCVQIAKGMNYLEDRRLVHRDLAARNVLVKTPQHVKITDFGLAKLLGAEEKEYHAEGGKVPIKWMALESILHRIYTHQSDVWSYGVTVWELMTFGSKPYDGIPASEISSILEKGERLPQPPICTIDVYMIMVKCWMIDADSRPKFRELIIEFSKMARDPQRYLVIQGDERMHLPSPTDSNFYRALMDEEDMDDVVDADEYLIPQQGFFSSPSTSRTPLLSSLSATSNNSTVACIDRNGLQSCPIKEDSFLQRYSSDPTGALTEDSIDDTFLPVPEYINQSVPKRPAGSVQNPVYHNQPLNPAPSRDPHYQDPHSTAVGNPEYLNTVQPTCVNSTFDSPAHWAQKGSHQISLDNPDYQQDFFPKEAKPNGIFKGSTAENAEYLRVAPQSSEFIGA

Test system in one series: not given
Experiment: not given
Details: not given
For `CCOC(=O)CN(C)CCCNC(=O)C=CC(=O)Nc1ccc2ncnc(Nc3cccc(Br)c3)c2c1` [Example 3, 4-[(3-Bromophenyl)amino]-6-{[4-(3-{N-[(ethoxycarbonyl)methyl]-N-methylamino)propylamino)-1,4-dioxo-2-buten-1-yl]amino}-quinazoline], the melting point worked out at 199 °C.
Consider `CCOC(=O)CN(C)CC=CC(=O)Nc1cc2c(Nc3cccc(C)c3)ncnc2cc1OC` [Example 5, 4-[(3-methylphenyl)amino]-6-[(4-{N-[(ethoxycarbonyl)methyl]-N-methylamino}-1-oxo-2-buten-1-yl)amino]-7-methoxy-quinazoline], for which the melting point is 110 to 114 °C.
As to `C=CC(=O)Nc1cc2c(Nc3cccc(Br)c3)ncnc2cc1OCCCN1CCN(CC(=O)O)CC1` [Example 6, 4-[(3-Bromophenyl)amino]-7-{3-[4-(carboxymethyl)-piperazin-1-yl]propyloxy}-6-[(vinylcarbonyl)amino]-quinazoline], the melting point is 140 °C (dec.).
`CCOC1CN(CC=CC(=O)Nc2cc3c(Nc4cccc(Br)c4)ncnc3cc2OC)CC(OCC)O1` (stereo not drawn) [Example 7, 4-[(3-bromophenyl)amino]-6-{[4-(2,6-diethoxy-morpholin-4-yl)-1-oxo-2-buten-1-yl]amino}-7-methoxy-quinazoline]: the melting point was in the range of 133 to 138 °C.
For the compound `CC1(C)CN(CC=CC(=O)Nc2cc3c(Nc4ccc(F)c(Cl)c4)ncnc3cc2OCC2CC2)CC(=O)O1` [Example 10, 4-[(3-chloro-4-fluorophenyl)amino]-6-{[4-(2,2-dimethyl-6-oxo-morpholin-4-yl)-1-oxo-2-buten-1-yl]amino}-7-cyclopropylmethoxy-quinazoline], the melting point lay within 140 to 142 °C.
The compound `O=C(C=CCN1CCN(CC(=O)OCc2ccccc2)CC1)Nc1cc2c(Nc3ccc(F)c(Cl)c3)ncnc2cc1OCC1CC1` [Example 12, 4-[(3-Chloro-4-fluoro-phenyl)amino]-6-[(4-{4-[(benzyloxycarbonyl)methyl]-piperazin-1-yl)-1-oxo-2-buten-1-yl}amino]-7-cyclopropylmethoxy-quinazoline] yielded a melting point of 174 °C.
With `CCOC(=O)C1CN(S(C)(=O)=O)CCN1CC=CC(=O)Nc1cc2c(Nc3ccc(F)c(Cl)c3)ncnc2cc1OCC1CC1` (stereo not drawn) [Example 15, 4-[(3-Chloro-4-fluoro-phenyl)amino]-6-({4-[2-(ethoxycarbonyl)-4-(methylsulfonyl)-piperazin-1-yl]-1-oxo-2-buten-1-yl)amino)-7-cyclopropylmethoxy-quinazoline], the melting point is 170 to 173 °C.
The same measure, in the same setting: the value for `CCOC(=O)CCN1CCN(CC=CC(=O)Nc2cc3c(Nc4ccc(F)c(Cl)c4)ncnc3cc2OCC2CC2)CC1` [Example 16, 4-[(3-Chloro-4-fluoro-phenyl)amino]-6-[(4-{4-[2-(ethoxycarbonyl)-ethyl]-piperazin-1-yl}-1-oxo-2-buten-1-yl)amino]-7-cyclopropylmethoxy-quinazoline] was 183 to 185 °C; that for `CCOC(=O)CN1CCN(C(C)(C)C=CC(=O)Nc2cc3c(Nc4ccc(F)c(Cl)c4)ncnc3cc2OCC2CC2)CC1` [Example 17, 4-[(3-Chloro-4-fluoro-phenyl)amino]-6-[(4,4-dimethyl-4-{4-[(ethoxycarbonyl)methyl]-piperazin-1-yl)-1-oxo-2-buten-1-yl)amino]-7-cyclopropylmethoxy-quinazoline] was 165 to 167 °C.

A further series has as its target T1, human EGF-R (Homo sapiens, UniProt P00533).
T1 construct: expressed in transfected cells; host or cells: F/L-HERc cells, derived from the murine IL-3-dependent line FDC-P1 ('FDC-PI' [sic]); retroviral vector LXSN, packaging line GP+E86
In words: Inhibition of EGF-dependent proliferation of F/L-HERc cells (Cell Titer 96 AQueous assay). Type of series: cell-based. As to conditions: F/L-HERc cells (murine IL-3-dependent line expressing human EGF-R), stimulated with EGF 20 ng/ml, 48 hours at 37° C. The source says: A cell line of murine origin dependent on interleukin-3 (IL-3) which was genetically modified to express functional human EGF-R was used here. The proliferation of these cells known as F/L-HERc can therefore be stimulated either by murine IL-3 or by EGF (cf. von Rüden, T. et al. in EMBO J. 7, 2749-2756 (1988) and Pierce, J. H. et al. in Science 239. 628-631 (1988)).
The starting material used for the F/L-HERc cells was the cell line FDC-PI, the production of which has been described by Dexter, T. M. et al, in J. Exp. Med. 152, 1036-1047 (1980). alternatively, however, other growth-factor-dependent cells may also be used (cf. for example Pierce, J. H. et al. in Science 239, 628-631 (1988), Shibuya, H. et al. in Cell 70, 57-67 (1992) and alexander, W. S. et al. in EMBO J. 10, 3683-3691 (1991)). For expressing the human EGF-R cDNA (cf. Ullrich, A. et al. in Nature 309, 418-425 (1984)) recombinant retroviruses were used as described by von Rüden, T. et al., EMBO J. 7, 2749-2756 (1988), except that the retroviral vector LXSN (cf. Miller, A. D. et al. in BioTechniques 1, 980-990 (1989)) was used for the expression of the EGF-R cDNA and the line GP+E86 (cf, Markowitz, D, et al. in J. Virol. 62, 1120-1124 (1988)) was used as the packaging cell.
The test was performed as follows: • F/L-HERC cells were cultivated in RPMI/1640 medium (BioWhittaker), supplemented with 10% foetal calf serum (FCS, Boehringer Mannheim). 2 mM glutamine (BioWhittaker), standard antibiotics and 20 ng/ml of human EGF (Promega), at 37° C. and 5% CO2. In order to investigate the inhibitory activity of the compounds according to the invention, 1.5×10^4 cells per well were cultivated in triplicate in 96-well plates in the above medium ([…]), the cell proliferation being stimulated with either EGF (20 ng/ml) or murine IL-3. The IL-3 used was obtained from culture supernatants of the cell line X63/0 mIL-3 (cf. Karasuyama, 4. et al. in Eur. J. Immunol. 18, 97-104 (19881). The compounds according to the invention were dissolved in 100% dimethylsulphoxide (DMSO) and added to the cultures in various dilutions, the maximum DMSO concentration being 1%. The cultures were incubated for 48 hours at 37° C.
In order to determine the inhibitory activity of the compounds according to the invention the relative cell number was measured in O.D. units using the Cell Titer 96™ AQueous Non-Radioactive Cell Proliferation Assay (Promega). The relative cell number was calculated as a percentage of the control (F/LHERc cells without inhibitor) and the concentration of active substance which inhibits the proliferation of the cells by 50% (IC50) was derived therefrom.
`C=CC(=O)Nc1cc2c(Nc3cccc(Br)c3)ncnc2cc1OCCCN1CCN(CCCC(=O)OCC)CC1` [1(4), 4-[(3-bromophenyl)amino]-7-(3-{4-[3-(ethoxycarbonyl)propyl]-piperazin-1-yl}propyloxy)-6-[(vinylcarbonyl)amino]-quinazoline] returned a 50% inhibitory concentration (IC50) of 15 nM.
`C=CC(=O)Nc1cc2c(Nc3cccc(Br)c3)ncnc2cc1OC1CCN(CC(=O)OCC)CC1` [1(6), 4-[(3-bromophenyl)amino]-7-((1-[(ethoxycarbonyl)methyl]-piperidin-4-yl)oxy)-6-[(vinylcarbonyl)amino]-quinazoline] had an IC50 of 15 nM.
As for `C=CC(=O)Nc1cc2c(Nc3cccc(Br)c3)ncnc2cc1OCCCN1CCN(CP(=O)(OCC)OCC)CC1` [1(10), 4-[(3-bromophenyl)amino]-7-(3-{4-[(diethoxyphosphoryl)-methyl]-piperazin-1-yl}propyloxy)-6-[(vinylcarbonyl)amino]-quinazoline], half-maximal inhibition (IC50) was put at 21 nM.
In turn, `C=CC(=O)Nc1cc2c(Nc3cccc(Br)c3)ncnc2cc1OCCCN(C)CC(=O)OCC` [1(13), 4-[(3-bromophenyl)amino]-7-(3-{N-[(ethoxycarbonyl)methyl]-N-methylamino)propyloxy)-6-[(vinylcarbonyl)amino]-quinazoline] displayed an IC50 of 8.7 nM. This IC50 is about 2.4-fold lower than that of the compound before.
On to `CCOP(=O)(CN(C)CC=CC(=O)Nc1cc2c(Nc3cccc(Br)c3)ncnc2cc1OC)OCC` [2(4), 4-[(3-bromophenyl)amino]-6-[(4-{N-[(diethoxyphosphoryl)methyl]-N-methylamino}-1-oxo-2-buten-1-yl)amino]-7-methoxy-quinazoline], for which the IC50 was 6.7 nM.
In the case of `CCOC(=O)CN(C)CC=CC(=O)Nc1cc2c(N[C@H](C)c3ccccc3)ncnc2cc1OC` [5(2), (R)-4-[(1-phenylethyl)amino]-6-[(4-(N-[(ethoxycarbonyl)methyl]-N-methylamino}-1-oxo-2-buten-1-yl)amino]-7-methoxy-quinazoline], the 50% inhibitory concentration (IC50) was found to be 9 nM.
Still for that read-out and setting: the value for `COc1cc2ncnc(Nc3cccc(Br)c3)c2cc1NC(=O)C=CCN(C)CC(OC)OC` [5(8), 4-[(3-bromophenyl)amino]-6-({4-[N-(2,2-dimethoxyethyl)-N-methylamino]-1-oxo-2-buten-1-yl}amino)-7-methoxy-quinazoline] was 1.8 nM; that for `CCOC1CN(CC=CC(=O)Nc2cc3c(Nc4cccc(Br)c4)ncnc3cc2OC)CCO1` (stereo not drawn) [5(10), 4-[(3-bromophenyl)amino]-6-([4-(2-ethoxy-morpholin-4-yl)-1-oxo-2-buten-1-yl]amino)-7-methoxy-quinazoline] was 1.8 nM.
The compound `CCOC(=O)CN(C)CC=CC(=O)Nc1ccc2ncc(C#N)c(Nc3cccc(Br)c3)c2c1` [5(12), 4-[(3-bromophenyl)amino]-3-cyano-6-[(4-{N-[(ethoxycarbonyl)methyl]-N-methylamino}-1-oxo-2-buten-1-yl)amino]-quinoline] displayed an IC50 of 18 nM. This IC50 lies about 10-fold higher than the previous one.
`CCOC(=O)CN1CCN(CC=CC(=O)Nc2cc3c(Nc4ccc(F)c(Cl)c4)ncnc3cc2OCC2CC2)CC1` [5(18)]: it took 7.4 nM to reach half-maximal inhibition (IC50).
Turning to `CCOC(=O)CCN(CC=CC(=O)Nc1cc2c(Nc3ccc(F)c(Cl)c3)ncnc2cc1OCC1CC1)CC(=O)OCC` [5(22)], the half-maximal inhibitory concentration (IC50) is 58 nM.
Same read-out and setting: the value for `O=C(C=CCN1CCOC(=O)C1)Nc1cc2c(Nc3ccc(F)c(Cl)c3)ncnc2cc1OCC1CC1` [5(25), 4-[(3-chloro-4-fluorophenyl)amino]-6-{[4-(2-oxo-morpholin-4-yl)-1-oxo-2-buten-1-yl]amino}-7-cyclopropylmethoxy-quinazoline] was 74 nM; that for `CCOC(=O)CN1CCN(CC=CC(=O)Nc2cc3c(Nc4ccc(F)c(Cl)c4)ncnc3cc2OC2CCC2)CC1` [5(29), 4-[(3-chloro-4-fluorophenyl)amino]-6-[(4-{4-[(ethoxycarbonyl)methyl]-piperazin-1-yl)-1-oxo-2-buten-1-yl}amino]-7-cyclobutyloxy-quinazoline] was 1.9 nM; that for `COC(=O)[C@@H]1CCCN1CC=CC(=O)Nc1cc2c(Nc3ccc(F)c(Cl)c3)ncnc2cc1OCC1CC1` [5(36)] was 3 nM.
Same read-out and setting: the value for `CCOC(=O)CN(CC=CC(=O)Nc1cc2c(Nc3ccc(F)c(Cl)c3)ncnc2cc1OCC1CC1)CCSC(C)=O` [8(1), 4-[(3-chloro-4-fluorophenyl)amino]-6-[(4-(N-[(ethoxycarbonyl)methyl]-N-[2-(acetylsulphanyl)ethyl]amino)-1-oxo-2-buten-1-yl)amino]-7-cyclopropylmethoxy-quinazoline] was 109 nM.
